Measurements as given in patent US20210292710A1, “METHOD FOR ENHANCING IMMUNE FUNCTION OF IMMUNE CELL AND IMMUNE CELL LINE PRODUCED USING THE SAME” (INDUSTRY-ACADEMIC COOPERATION FOUNDATION, YONSEI UNIVERSITY, priority 2020, published 2021).

Tests used:
[1] = test system: GLUT1; assay: GLUT1 expression in T cells due to PI3K inhibitor and mTORC1 inhibitor treatment; type: cell-based; conditions: RAD001 as mTORC1 inhibitor, p<0.05
From the text: Furthermore, referring to FIG. 8, AKT and GLUT1 expression levels in T cells due to PI3K inhibitor and mTORC1 inhibitor treatment are shown. In this connection, RAD001 is used as a mTORC1 inhibitor. Furthermore, referring to (b) of FIG. 8, the GLUT1 expression level in T cells due to PI3K inhibitor and mTORC1 inhibitor treatment is shown.

[2] = test system: GLUT1; assay: GLUT1 expression in T cells due to PI3K inhibitor and AKT inhibitor treatment; type: cell-based; conditions: both helper and cytotoxic T cells; p<0.05
From the text: Furthermore, referring to FIG. 7, the GLUT1 expression level in the T cells due to PI3K inhibitor and AKT inhibitor treatment is shown.

[3] = test system: GLUT1; assay: GLUT1 expression in T cell based on type of PI3K inhibitor
From the text: More specifically, referring to (a) of FIG. 12, the results of GLUT1 expression according to the type of PI3K inhibitor in the helper T cell are shown. In this connection, the PI3K inhibitor may include BKM 120 that may inhibit all subtypes, CAL-101 that may inhibit only p110δ, IPI-145 capable of inhibiting p110γ and P110δ, BYLT719 capable of inhibiting only p110α, and TGX-211 capable of inhibiting only p110β.
Referring to (b) of FIG. 12, the results of GLUT1 expression according to the type of PI3K inhibitor in cytotoxic T cells are shown.

[4] = test system: lung-cancer cell line LLC2; assay: Cancer cell killing ability of CD3+ T cells from PI3K inhibitor-treated mice, co-culture with lung-cancer cell line, annexin V/PI flow cytometry; type: cell-based, mouse
Description: First, 3 μg of a neoplasm lysate obtained from lung-cancer cell line LLC2 and 1 μg of an adjuvant LPS (lipopolysaccharide) are injected into 6 to 8 weeks old BALBc mice as an allogeneic model once a week in an intramuscular injection manner. At the same time, 50 mpk (mg/kg) of BKM-120 as a PI3K inhibitor (iPI3K) is orally administered to the mice belonging to the PI3K inhibitor-treated experimental group once a day.
Then, lymphocytes are separated from the splenocyte of the mouse subjected to the PI3K inhibitor for a total of 3 weeks. Only CD3+ T cells are obtained using a magnetic-activated cell sorter (MACS).
Then, the obtained CD3+ T cells are co-cultured for 24 hours together with the lung-cancer cell line from which the lysate is obtained. In this connection, a ratio between the numbers of the T cell and the lung-cancer cell line may be defined as 10 T cells: 1 lung-cancer cell line. Furthermore, the T cells and lung-cancer cell line are cultured under a normal condition, a hypoxic condition, and a low glucose condition, respectively, to identify cancer cell killing ability in poor tumor microenvironment.
Then, the co-cultured T cells and lung-cancer cell line are subjected to flow cytometry analysis using an apoptosis kit and CD3+ antibodies.
First, referring to (a) of FIG. 3A, the result of the cancer cell killing ability of the T cell under the normal condition due to the treatment of the PI3K inhibitor is shown. In this connection, the x-axis and y-axis indicate apoptosis using annexin V and PI (propidium iodine) as staining reagent, respectively.

[5] = test system: lung-cancer cell line LLC2; assay: Anti-cancer effect (tumor size) in lung-cancer cell line LLC2; type: in vivo
Description: First, referring to FIG. 9A, the results of the anti-cancer effect in the lung-cancer cell line LLC2 due to PI3K inhibitor treatment are shown. […] However, when the PI3K inhibitor treatment is carried out, the tumor size is reduced compared to the control. More specifically, when the PI3K inhibitor BKM 120 treatment is carried out at 35 mpk, the tumor size on the 15th day is 300 to 350 mm^3. When BKM 120 treatment is carried out at 50 mpk, the tumor size on day 15 is found to be 90 to 100 mm^3.

[6] = test system: pAKT (phosphoAKT); assay: pAKT expression in CD4 and CD8 T cells by flow cytometry (MFI); type: cell-based, mouse; conditions: for AKT expression relative to control: after 48 hours
Description: First, referring to FIG. 6, an expression level of pAKT (phosphoAKT) in an active state in the T cell due to PI3K inhibitor treatment is shown. In this connection, in order to identify AKT activation of T cells due to PI3K inhibitor treatment, the CD3+ T cells obtained in FIG. 2 are used. Furthermore, the obtained CD3+ T cells are co-cultured for 48 hours together with CD11c positive dendritic cells, anti-CD3 and anti-CD28. The pAKT expression is measured via flow cytometry in 6 and 48 hours after the co-culture has started. Furthermore, expression of pAKT is indicated as mean fluorescence intensity (MFI). Furthermore, CD4 and CD8 positive cells are used as T cells to measure expression of pAKT. In this connection, CD4 and CD8 are present in the cell membrane of the T cell and are cell-binding proteins that bind to non-polymorphic regions of class II MHC and class I MHC, respectively. CD4 may be a helper T cell as a T cell lineage marker. CD8 may refer to a cytotoxic T cell.

[7] = hypoxic condition, 50 mpk BKM-120, 3 weeks, 24 hours co-culture
[8] = low glucose condition, 50 mpk BKM-120, 3 weeks, 24 hours co-culture
[9] = normal condition, 50 mpk BKM-120, 3 weeks, 24 hours co-culture

Nc1cc(C(F)(F)F)c(-c2cc(N3CCOCC3)nc(N3CCOCC3)n2)cn1 [BKM 120, buparlisib]
GLUT1 expression in iPI3K+/imTOR− group relative to iPI3K−/imTOR−, iPI3K−/imTOR+ and iPI3K+/imTOR+ groups [1]: 6 to 7 times | GLUT1 expression in iPI3K+/iAKT− group relative to iPI3K−/iAKT−, iPI3K−/iAKT+ and iPI3K+/iAKT+ groups [2]: 2 to 3 times | GLUT1 expression level versus BYLT719 and TGX-211 inhibitors ([3]; cytotoxic T cells): higher GLUT1 expression levels | GLUT1 expression level versus BYLT719 and TGX-211 inhibitors ([3]; helper T cell): higher GLUT1 expression levels | first quadrant (stained by both annexin V and PI, complete death of the cancer cell) [4, 7]: 47.4% | fourth quadrant (annexin V / PI) [4, 7]: 7.36% | second quadrant (annexin V / PI) [4, 7]: 26.7% | third quadrant (annexin V / PI) [4, 7]: 18.5% | first quadrant (stained by both annexin V and PI, complete death of the cancer cell) [4, 8]: 36.1% | fourth quadrant (annexin V / PI) [4, 8]: 3.71% | second quadrant (annexin V / PI) [4, 8]: 47.2% | third quadrant (annexin V / PI) [4, 8]: 13.1% | fourth quadrant (annexin V / PI) [4, 9]: 11.5% | second quadrant (annexin V / PI) [4, 9]: 15.5% | third quadrant (annexin V / PI) [4, 9]: 10.2% | first quadrant (stained by both annexin V and PI, complete death of the cancer cell) ([4]; normal condition, T cells from mice given 50 mpk BKM-120 orally once a day for 3 weeks, 10 T cells:1 LLC2, 24 hours): 62.8% | tumor size ([5]; 35 mpk, 15th day): 300 to 350 mm^3 | tumor size ([5]; 50 mpk, day 15): 90 to 100 mm^3 | AKT expression level relative to the AKT expression level at the start of culture ([6]; 48 hours after the start of culture): ≥ 3 times | AKT expression versus control ([6]; cytotoxic T cells (CD8), 0 to 25 hours): lower AKT expression than that of the control | AKT expression versus control ([6]; cytotoxic T cells (CD8), after 25 hours): higher AKT expression than that of the control | AKT expression relative to control ([6]; cytotoxic T cells (CD8)): 1.3 to 1.7 times | AKT expression versus control ([6]; helper T cell (CD4), 0 to 20 hours): lower AKT expression than that of the control | AKT expression versus control ([6]; helper T cell (CD4), after 20 hours): higher AKT expression than that of the control | AKT expression relative to control ([6]; helper T cell (CD4)): 1.5 to 2 times | time after the start of the culture at which the AKT level is increased again to the level before the PI3K treatment ([6]; immune cells cultured after PI3K inhibitor treatment): 20 h
